{"source": "patent US20070135423A1", "about": "“E-fluoro-4-(pyridin-2-yl)-piperidine-1-carboxamide derivatives and related compounds which modulate the function of the vanilloid-1 receptor (vr1) for the treatment of pain” (priority 2003, published 2007)", "origin": "cited, not measured here", "target": "VR1 (Rattus norvegicus, UniProt O35433)", "sequence (O35433 whole entry)": "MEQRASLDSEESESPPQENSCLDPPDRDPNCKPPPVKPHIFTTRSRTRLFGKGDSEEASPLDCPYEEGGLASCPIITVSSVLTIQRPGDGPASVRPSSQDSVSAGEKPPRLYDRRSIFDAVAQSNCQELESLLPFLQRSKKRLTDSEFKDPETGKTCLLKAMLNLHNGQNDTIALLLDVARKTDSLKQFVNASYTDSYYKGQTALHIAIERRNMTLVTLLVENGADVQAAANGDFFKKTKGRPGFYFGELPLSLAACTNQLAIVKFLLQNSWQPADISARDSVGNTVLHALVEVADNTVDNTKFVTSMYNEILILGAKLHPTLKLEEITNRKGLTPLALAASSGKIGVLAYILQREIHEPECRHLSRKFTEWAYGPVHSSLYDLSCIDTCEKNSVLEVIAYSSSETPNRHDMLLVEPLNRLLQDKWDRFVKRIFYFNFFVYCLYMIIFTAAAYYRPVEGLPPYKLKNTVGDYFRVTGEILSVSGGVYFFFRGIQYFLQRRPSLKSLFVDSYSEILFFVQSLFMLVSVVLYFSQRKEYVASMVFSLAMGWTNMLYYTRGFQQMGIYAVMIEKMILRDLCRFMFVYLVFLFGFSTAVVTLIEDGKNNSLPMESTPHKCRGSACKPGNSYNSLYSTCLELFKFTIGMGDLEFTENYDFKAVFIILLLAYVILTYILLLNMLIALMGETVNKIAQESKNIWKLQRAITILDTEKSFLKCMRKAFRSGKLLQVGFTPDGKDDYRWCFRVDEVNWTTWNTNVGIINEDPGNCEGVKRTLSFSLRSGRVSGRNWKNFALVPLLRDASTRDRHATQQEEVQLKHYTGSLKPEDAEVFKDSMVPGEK", "settings": "Wahl et al., Mol. Pharmacol, 59:9, 2001", "data": [{"molecule": "C=C(C)[C@]12C[C@@H](C)[C@@]34O[C@](Cc5ccccc5)(O[C@@H]1[C@@H]3C=C(COC(=O)Cc1cc(I)c(O)c(OC)c1)C[C@]1(O)C(=O)C(C)=C[C@@H]41)O2", "note": "[Iodo-resiniferatoxin]", "values": [{"measurement": "VR1 antagonist potency (in words)", "value": "nanomolar antagonist"}]}]}
